The source of these data is patent US20160038597A9, “CARRIER THAT TARGETS FUCOSYLATED MOLECULE-PRODUCING CELLS” (priority 2010, published 2016).

Test [1] has as its system ASPC-1. Kind of test: 14C-fucose binding to cells. The protocol:
(§1) Binding of fucose (fucose refers to L-fucose, unless otherwise stated) to the fucosylated sugar chain high-producing cell line ASPC-1 and fucosylated sugar chain low-producing cell line PANC-1 was investigated using radiolabeled fucose.
(§2) In a 12-well culture plate, 1×10^5 cells were seeded and cultured overnight, and ^14C-fucose (specific activity: 55 mCi/mmol) diluted with BSA-PBS at a concentration of 0-200 nM was added to the cells and cultured at 4° C. for 1 hr. The cells were washed with cold BSA-PBS, lysed by 1% Triton X100/PBS-0.25% trypsin, and the radioactivity of the ^14C-fucose bound to the cell membrane was measured (FIGS. 3 and 4).
In another experiment, in a 12-well culture plate, 2×10^5 cells were seeded and cultured overnight, 10 nmol of ^14C-fucose (specific activity: 55 mCi/mmol) were added to the cells either singly or together with 1 pmol of fucose, and cultured at 4° C. for 1, 3, or 24 hr. The cells under each condition were washed with cold BSA-PBS, lysed by 1% Triton X100/PBS-0.25% trypsin, and the radioactivity of the ^14C-fucose was measured (FIG. 5).

In test [2] the test system is PANC-1. The test can be described thus: 14C-fucose binding to cells. The note with it: 14C-fucose 0-200 nM, 4° C., 1 hr. The protocol:
as §1, §2

Consider `C[C@H](O)[C@@H](O)[C@@H](O)[C@H](O)C=O` [fucose, L-fucose], for which, in test [1] (10 nmol 14C-fucose with non-labeled fucose, 4° C., 1, 3 or 24 hr), the “binding of 14C-fucose in competition with excessive non-labeled fucose” value was “inhibited”. For the same compound, the “binding of fucose to cells (affinity)” value in test [1] (14C-fucose 0-200 nM, 4° C., 1 hr, compared with PANC-1) is reported as “affinity is higher”. Further, the “binding of fucose to cells” value in test [2] was “binds to ASPC-1 and PANC-1 via a receptor-like mechanism”.
